Values joined by “and” are separate entries in the source; they are usually repeats but may differ in a detail not shown here. Equal values may be shown once.
Key:
MLKL phosphorylation [1] = experiment: Immunoblotting of p-MLKL/MLKL in HT-29 cells; format: cell-based, human; details: P2Y14R-OE cells + TSZ, replicates, supplement Figure 2e
Method: (§1) Tissues and cells were lysed using RIPA lysis buffer (Beyotime Biotechnology) containing protease and phosphatase inhibitor, homogenated, and centrifuged. The protein concentration was determined by BCA protein assay (Beyotime Biotechnology). Equal concentrations of proteins were separated in a 10% SDS-PAGE and transferred to PVDF membrane. […] Densitometry was quantified using ImageJ software.

MLKL phosphorylation [2] = experiment: Immunoblotting of p-MLKL/MLKL in HCT-116 cells; format: cell-based, human; details: P2Y14R-OE cells + TSZ, replicates, supplement Figure 2g
Method: as §1

Ripk1 mRNA [3] = experiment: RT-PCR of Ripk1 mRNA in intestinal epithelial cells of experimental colitis mice; format: in vivo, mouse; details: Figure 7i, group TSZ+UDPG+Nec-1s
Method: Colon tissues derived from the euthanized by carbon dioxide inhalation mice were opened longitudinally and washed in pre-cooling PBS for three times. Then, the tissues were cut into 3 mm^2 pieces and incubated with 5 mM EDTA solution in PBS on a constant temperature shaker at 200 rpm for 25 min at 37°C. Then, let it stand at room temperature for 30 seconds and collected the supernatant. Next, repeated the above process once. Supernatants from the above step were combined and centrifuged at 500 g for 8 min. Abandon the supernatants and obtain IECs.
(§2) Total RNA was extracted from cells or colonic tissues using Trizol (Thermo) under the manufacturer’s instructions. First strand cDNA was synthesized using the PrimeScript RT Reagent Kit (480, Abm). SYBR Green Master Mix reagents (Q331-02, Vazyme) and primer mixtures (Table S1) were used for the real-time PCR. […] The procedure was as described in the kit provided by the manufacturer. Briefly, isolated IECs were fixed by 1% formaldehyde, and fragmented by sonication. CREB was then used for immunoprecipitation. After washing and reverse-crosslinking, the precipitated DNA was amplified by primers and quantified by the qPCR. Primer sequences can be found in Supplementary Table 1.

Ripk1 mRNA [4] = experiment: RT-PCR of Ripk1 mRNA in HCT-116 cells; format: cell-based, human
Source text: as §2

HCT-116 cells = experiment: TSZ-induced necroptosis in HCT-116 cells (PI/Hoechst staining); format: cell-based, human
Method: (§3) Necroptosis was induced by pretreatment with TNF‐α (20 ng·mL^−1) plus z‐VAD‐fmk (20 μM) and Smac mimetic (BV6, 2 μM) for 8 h, then stained cells with hematoxylin/eosin. For PI/Hoechst staining, cells were stained with PI and Hoechst for 20 min, then photographed with a fluorescence microscope and at least 300 cells were counted. The ratio of PI positive cells (%) = (PI positive cells) / (Hoechst positive cells) × 100%. For cell viability assay, CCK8 was added to the well and incubated for 1 − 2 h and then OD450 was measured using a multi-mode microplate reader (Cytation5, BioTek).

HT-29 cells = experiment: TSZ-induced necroptosis in HT-29 cells (CCK8 viability, PI/Hoechst, H&E staining); format: cell-based, human
Method: as §3

Ripk1 mRNA [5] = experiment: RT-PCR of Ripk1 mRNA in HT-29 cells; format: cell-based, human
Source text: as §2

[6] = test system: PKA and CREB phosphorylation; experiment: Immunoblotting of p-PKA and p-CREB in HCT-116 cells; format: cell-based, human
Method: as §1

[7] = test system: PKA and CREB phosphorylation; experiment: Immunoblotting of p-PKA and p-CREB in HT-29 cells; format: cell-based, human
Method: as §1

[8] = test system: CREB binding to Ripk1 promoter; experiment: ChIP-qPCR with anti-CREB on Ripk1 gene promoter in HCT-116 cells; format: cell-based, human
Source text: as §2

intestinal organoids = experiment: TSZ-induced necroptosis in intestinal organoids (PI staining); format: cell-based, mouse; details: P2Y14Rfl/fl organoids, UDPG+TSZ
Method: Crypts were released from the murine small intestine by incubation for 30 min at 4°C in PBS containing 2 mM EDTA. Isolated crypts were counted and pelleted. […] Organoid media were changed every 3 days. […] Dead cell imaging in live organoids was performed on the fluorescence microscope (BX53, Olympus Optical), and analyzed by image j.

[9] = test system: CREB binding to Ripk1 promoter; experiment: ChIP-qPCR with anti-CREB on Ripk1 gene promoter in HT-29 cells; format: cell-based, human
Source text: as §2

[10] = HCT-116 cells, UDPG+TSZ, pre-treatment
[11] = HT-29 cells, UDPG+TSZ, pre-treatment

`CN1C(=O)NC(Cc2c[nH]c3c(Cl)cccc23)C1=O` (centres unmarked) [Nec-1s] was tested, and the P-MLKL/MLKL (MLKL phosphorylation [1]) was 2.79 and 2.6518 and 3.608 and 1.739 and 2.51, the P-MLKL/MLKL (MLKL phosphorylation [2]) was 2.175 and 2.507 and 2.289 and 2.573 and 2.48 and the “Expression of Ripk1 in IEC, 2^△△CT” value (Ripk1 mRNA [3]) was 1.11 and 1.102 and 0.9517 and 0.9698 and 1.16. The “Ripk1 transcript (mRNA)” value (Ripk1 mRNA [4]; [10]) was “showed no effect”, the “Expression of Ripk1 in HCT-116 cell, 2^△△CT” value (Ripk1 mRNA [4]; added to TSZ+UDPG) was 2.77 and 2.8504 and 2.771 and 2.541 and 2.7034 and the “UDP-glucose derived damage on TSZ-stimulated necroptosis” value (HCT-116 cells; HCT-116 cells, UDPG+TSZ) was “remarkably attenuated the UDP-glucose derived damage on TSZ-stimulated necroptosis”. The “PI positive (%)” value (HCT-116 cells; P2Y14R-OE cells + TSZ, replicates, supplement Figure 2f) was 1.2% and 1.6% and 3.0%, the TSZ-stimulated necroptosis (HCT-116 cells; P2Y14R-overexpression HCT-116 cells, pre-treated) was “alleviated this phenomenon” and the “UDP-glucose derived damage on TSZ-stimulated necroptosis” value (HT-29 cells; HT-29 cells, UDPG+TSZ) was “remarkably attenuated the UDP-glucose derived damage on TSZ-stimulated necroptosis”. For the same molecule, the Cell viability (HT-29 cells; P2Y14R-OE cells + TSZ, replicates) was 99.7919 and 100.274 and 99.3783 and 100.966 and 100.911 and 101.005, the “PI positive (%)” value (HT-29 cells; P2Y14R-OE cells + TSZ, replicates, supplement Figure 2c) was 6.21% and 5.544% and 2.585% and the TSZ-stimulated necroptosis (HT-29 cells; P2Y14R-overexpression HT-29 cells, 1h pre-treatment, TSZ 8 h) was “alleviated TSZ stimulated IECs necroptosis”. For the same molecule, the “Ripk1 transcript (mRNA)” value (Ripk1 mRNA [5]; [11]) was “showed no effect”, the “Expression of Ripk1 in HT-29 cell, 2^△△CT” value (Ripk1 mRNA [5]; added to TSZ+UDPG) was 3.657 and 4.786 and 3.641 and 3.399 and 4.214 and 3.302 and the P-PKA/PKA ([6]; Figure 5n, second block, added to UDPG+TSZ) was 0.2244 and 0.2706 and 0.2071 and 0.4048 and 0.2633. For the same molecule, the “Phosphorylation level of PKA/CREB pathway” value ([6]; UDPG+TSZ) was “did not affect the phosphorylation level of PKA/CREB pathway”, the “Phosphorylation level of PKA/CREB pathway” value ([7]; UDPG+TSZ) was “did not affect the phosphorylation level of PKA/CREB pathway” and the P-CREB/CREB ([7]; added to UDPG+TSZ, Figure 5k) was 0.2673 and 0.2178 and 0.2551 and 0.2611 and 0.3759. For the same molecule, the “CREB binding Ripk1 promoter” value ([8]; Figure 5p, added to TSZ+UDPG) was 42.22% and 33.74% and 27.53%, the “Decrease of binding between CREB and Ripk1 promoter (ChIP)” value [8, 10] was “did not affect this process” and the “UDPG-increased TSZ necroptosis in organoids” value (intestinal organoids) was “remarkably attenuated this damage”. For the same molecule, the “CREB binding Ripk1 promoter” value ([9]; Figure 5m, added to TSZ+UDPG) was 4.90% and 6.57% and 1.83% and the “Decrease of binding between CREB and Ripk1 promoter (ChIP)” value [9, 11] was “did not affect this process”.

Source: article PMC10920779, “Targeting P2Y14R protects against necroptosis of intestinal epithelial cells through PKA/CREB/RIPK1 axis in ulcerative colitis” (Nature Communications, 2024)
